Among the test systems are MDA-MB-231; MOLT-4; M14; LOX IMVI; 786-0; Malme-3M; SW-620; OVCAR-8; UACC-62; NCI-H460; ACHN; SNB-75; SN12C; HCT-116; T47D; EKVX; OVCAR-3; HOP-62; UACC-257.
Holding throughout (assay): NCI tumour cell line growth inhibition, 48 h

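Briefly, cells in 96-well plates were exposed to five compound concentrations for 48 h, and endpoints were estimated by linear interpolation. GI50 is the concentration that inhibits growth by half.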 Calls of active or inactive are those of the source. Rule as the data show it: active = GI50 up to about 1.1 µM and inactive = higher.

Take `CC(C)(C)c1ccc(O)c(C[N+](C)(C)C)c1`: the GI50 in the assay on MDA-MB-231, in the assay on MOLT-4, in the assay on M14, in the assay with LOX IMVI, with 786-0 and with Malme-3M was > 100 µM (inactive) throughout. The GI50 in the assay on SW-620, with OVCAR-8, in the assay on UACC-62, in the assay with NCI-H460, in the assay with ACHN and with SNB-75 was > 100 µM (inactive) in each case. Moreover, the GI50 with SN12C is > 100 µM (inactive); in the assay on HCT-116 it was > 100 µM (inactive); with T47D, > 100 µM (inactive); in the assay with EKVX, 93.1 µM (inactive); in the assay with OVCAR-3, 68.9 µM (inactive); in the assay on HOP-62, > 100 µM (inactive).

`Cc1ccc2nc(N/N=C/c3ccc(C)s3)cc(C)c2c1`: the GI50 with MDA-MB-231 was 16.1 µM (inactive); in the assay with MOLT-4, 5.75 µM (inactive); with M14, 10.2 µM (inactive); with LOX IMVI, 4.53 µM (inactive); with 786-0, 3.37 µM (inactive); in the assay with Malme-3M it was 12.8 µM (inactive). Moreover, the GI50 is 6.1 µM (inactive) in the assay on SW-620; 12.9 µM (inactive) in the assay on OVCAR-8; 10.6 µM (inactive) in the assay on UACC-62; 11.7 µM (inactive) with ACHN; > 10 µM (inactive) in the assay with SNB-75; 12.7 µM (inactive) in the assay on SN12C. Moreover, the GI50 was 3.7 µM (inactive) in the assay with HCT-116; 7.91 µM (inactive) in the assay on T47D; 5.7 µM (inactive) with EKVX; 5.56 µM (inactive) in the assay with UACC-257; 6.24 µM (inactive) in the assay with OVCAR-3; 15.7 µM (inactive) in the assay with HOP-62.

Consider `COc1ccccc1OCC(=N/NC(=O)c1ccncc1)/N=C/c1cccnc1`, for which the GI50 in the assay with MDA-MB-231, with MOLT-4, in the assay with M14, in the assay with LOX IMVI, in the assay with 786-0 and with Malme-3M was > 100 µM (inactive) in each case. The GI50 was > 100 µM (inactive) with SW-620; > 100 µM (inactive) with OVCAR-8; > 100 µM (inactive) in the assay on UACC-62; > 100 µM (inactive) in the assay with NCI-H460; > 100 µM (inactive) with ACHN; 36.5 µM (inactive) with SNB-75. Further, the GI50 in the assay with HCT-116, in the assay on T47D, with EKVX, in the assay with UACC-257, in the assay with OVCAR-3 and in the assay with HOP-62 was > 100 µM (inactive) throughout.

As for `CCCCC(=O)Nc1ccc2cc(C(=O)OC)c(ON3C(=O)c4ccccc4C3=O)nc2n1`, the GI50 is 38.9 µM (inactive) in the assay with MDA-MB-231; 28.9 µM (inactive) in the assay on MOLT-4; 17.9 µM (inactive) with M14; 31 µM (inactive) in the assay with LOX IMVI; 17 µM (inactive) in the assay on 786-0; 17.9 µM (inactive) in the assay on Malme-3M. The GI50 in the assay with SW-620 is 46 µM (inactive); with OVCAR-8, 25 µM (inactive); in the assay with NCI-H460, 15.3 µM (inactive); in the assay on ACHN, 28.1 µM (inactive); in the assay on SNB-75, 28.6 µM (inactive); with SN12C, 28.9 µM (inactive). Also, the GI50 in the assay on HCT-116 was 15.7 µM (inactive); in the assay on T47D, 35.3 µM (inactive); in the assay with EKVX, 33.1 µM (inactive); in the assay on UACC-257 it was 23.5 µM (inactive); in the assay with OVCAR-3 it was 37.1 µM (inactive); in the assay with HOP-62, 18.6 µM (inactive).

Consider `O=C1NC(N2CCOCC2)=N/C1=C\c1ccccc1O`, for which the GI50 in the assay on MDA-MB-231, in the assay on MOLT-4, in the assay on M14, with LOX IMVI, in the assay with 786-0 and in the assay on Malme-3M was > 100 µM (inactive) in each case. In addition, the GI50 in the assay with SW-620, with OVCAR-8, with ACHN, with SNB-75, in the assay with SN12C and in the assay with HCT-116 was > 100 µM (inactive) each time. Further, the GI50 with T47D, in the assay on EKVX, in the assay with UACC-257, in the assay on OVCAR-3 and in the assay on HOP-62 was > 100 µM (inactive) each time.

For `CC(=O)c1cccc(NC(=O)/C(=N\NC(=S)NN)C2C(=O)Nc3ccccc3[S+]2[O-])c1` (configuration not stated), the GI50 in the assay with MDA-MB-231, with MOLT-4, with M14, with LOX IMVI, in the assay on 786-0 and in the assay with Malme-3M was > 100 µM (inactive) in each case. Further, the GI50 in the assay on SW-620, in the assay on OVCAR-8, with UACC-62, with ACHN, with SNB-75 and in the assay on SN12C was > 100 µM (inactive) each time. The GI50 in the assay on HCT-116 is > 100 µM (inactive); in the assay with T47D, > 100 µM (inactive); in the assay on EKVX, 39.1 µM (inactive); with UACC-257, > 100 µM (inactive); in the assay with OVCAR-3, > 100 µM (inactive); in the assay with HOP-62 it was > 100 µM (inactive).

For the compound `Cc1cc(S(=O)(=O)N=C2N(Cc3ccccc3)CCN2Cc2ccccc2)c(S)cc1Cl`, the GI50 in the assay with MDA-MB-231 is > 100 µM (inactive); in the assay with MOLT-4, > 100 µM (inactive); in the assay on M14, > 100 µM (inactive); with LOX IMVI it was 70.8 µM (inactive); in the assay with 786-0, > 100 µM (inactive); with Malme-3M it was > 100 µM (inactive). Moreover, the GI50 in the assay on SW-620 was > 100 µM (inactive); in the assay with OVCAR-8 it was > 100 µM (inactive); with UACC-62, > 100 µM (inactive); in the assay with NCI-H460 it was 56.1 µM (inactive); with ACHN, > 10 µM (inactive); in the assay on SNB-75, 69.8 µM (inactive). The GI50 in the assay with SN12C was > 100 µM (inactive); in the assay on HCT-116, > 100 µM (inactive); in the assay with T47D, 10.8 µM (inactive); with EKVX, > 100 µM (inactive); with UACC-257, > 100 µM (inactive); in the assay on OVCAR-3, > 100 µM (inactive). Moreover, the GI50 in the assay with HOP-62 is > 100 µM (inactive).

Regarding `CC(=O)OCC1OC(n2c(-c3ccccc3)c(/N=N/c3ccccc3)c(C)c(C#N)c2=S)C(OC(C)=O)C(OC(C)=O)C1OC(C)=O` (configuration not stated), the GI50 with MDA-MB-231, in the assay with MOLT-4, in the assay with M14, with LOX IMVI, in the assay on 786-0 and in the assay on Malme-3M was > 100 µM (inactive) in each case. The GI50 in the assay with SW-620, in the assay with UACC-62, in the assay on NCI-H460, in the assay with ACHN, with SNB-75 and in the assay with SN12C was > 100 µM (inactive) in each case. Also, the GI50 was > 100 µM (inactive) with HCT-116; > 100 µM (inactive) in the assay on T47D; 12.3 µM (inactive) with UACC-257; > 100 µM (inactive) with OVCAR-3; > 100 µM (inactive) in the assay with HOP-62.

For `COc1cc([N+](=O)[O-])c(OC)c2c(Nc3ccc(S(=O)(=O)O)c4cc(S(=O)(=O)O)cc(S(=O)(=O)O)c34)cc(C)nc12`, the GI50 with MDA-MB-231, in the assay with MOLT-4, in the assay on M14, with LOX IMVI, in the assay with 786-0 and with Malme-3M was > 100 µM (inactive) each time. The GI50 in the assay with SW-620, in the assay on OVCAR-8, in the assay on UACC-62, in the assay with SNB-75, with SN12C and in the assay with HCT-116 was > 100 µM (inactive) each time. Also, the GI50 in the assay with T47D, in the assay on EKVX, in the assay on UACC-257, with OVCAR-3 and in the assay with HOP-62 was > 100 µM (inactive) throughout.

In the case of `COc1cccc2c1NC(=O)Cc1c-2[nH]c2ccccc12`, the GI50 is > 100 µM (inactive) with MDA-MB-231; 13.6 µM (inactive) with MOLT-4; > 100 µM (inactive) with M14; > 100 µM (inactive) in the assay with LOX IMVI; > 100 µM (inactive) with 786-0; > 100 µM (inactive) in the assay on Malme-3M. Further, the GI50 was > 100 µM (inactive) in the assay with SW-620; > 100 µM (inactive) with UACC-62; 35.1 µM (inactive) in the assay with NCI-H460; > 100 µM (inactive) with ACHN; > 100 µM (inactive) with SNB-75; 40.6 µM (inactive) with T47D. Also, the GI50 in the assay with EKVX, in the assay on OVCAR-3 and with HOP-62 was > 100 µM (inactive) in each case.

Consider `C=C1C[C@H]2C=Nc3cc(OCCCOc4cc5c(cc4OC)C(=O)N4CC(=C)C[C@H]4C=N5)c(OC)cc3C(=O)N2C1` [SJG-136], for which the GI50 in the assay on MDA-MB-231 is < 0.0108 µM (active); with MOLT-4, 0.000136 µM (active); with LOX IMVI, < 0.01 µM (active); in the assay on 786-0 it was < 0.01 µM (active); in the assay on Malme-3M, 0.0109 µM (active); with SW-620 it was 0.0123 µM (active). The GI50 is 0.0119 µM (active) in the assay on OVCAR-8; < 0.01 µM (active) in the assay on UACC-62; < 0.01 µM (active) in the assay on NCI-H460; < 0.01 µM (active) in the assay with ACHN; < 0.01 µM (active) with SNB-75; < 0.01 µM (active) with SN12C. In addition, the GI50 with HCT-116 is 0.0103 µM (active); with T47D it was < 0.01 µM (active); in the assay with UACC-257, 0.0146 µM (active); in the assay on OVCAR-3, 0.0172 µM (active); in the assay on HOP-62, 0.0106 µM (active).

Source of the values: ChEMBL document CHEMBL1201862, “PubChem BioAssay data set” (2004).
